Like-named read-outs stand apart in the source and are kept apart here.
Columns and labels:
mice (Swiss strain) [1] = experiment: Acute toxicity, LD50 by oral route in mice (class D derivatives); type: in vivo; details: mouse, suspension in 2 % carboxymethylcellulose, observation 7 days
Description: The letal doses 50 (LD50) by oral route (suspension in 2 % carboxymethylcellulose) are reported hereinbelow: TABLE 6

[2] = test system: acetylcholinesterase (AchE); type: in vivo, Wistar male rats; details: rat; for inhibitory acetylcholinesterase activity (in words): oral, 1-2 mg/kg
mouse [3] = experiment: Spontaneous motility, Dews method modified according to Carminati (class D derivatives); type: in vivo; details: mouse (Swiss)
Description: (§1) The Dews method was used, modified according to Carminati (Arch. int. Pharmacodyn. et Thér 181, 68,1969).

SWISS male mice [4] = experiment: Electroencephalographic activity (class D derivatives); type: in vivo; details: 3mg/kg/os, in the course of the successive 30 minutes
rabbit [5] = experiment: Effect on the duration of the curarization by succinylcholine (class D derivatives); type: in vivo; details: anesthetized rabbit, 0.5 mg intravenous
[6] = Pharmacokinetics, plasma level by HPLC (MGF001); type: in vivo, Wistar male rats; details: rat, 2mg/kg/os
Experimental: (§2) The presence of said substance in plasma was detected by HPLC.
(§3) With the optimized method the detection limit was of 0.15 µg per ml of plasma.

[7] = biological target: T1, AChE (acetylcholinesterase) on the mouse brain (Mus musculus, UniProt P21836); experiment: Inhibition of AChE on the mouse brain after single doses (class F derivatives); type: in vivo; details: single doses (0.4-7 mg/kg)
T1 construct: from tissue; host or cells: mouse brain
T1 sequence (P21836 32-614): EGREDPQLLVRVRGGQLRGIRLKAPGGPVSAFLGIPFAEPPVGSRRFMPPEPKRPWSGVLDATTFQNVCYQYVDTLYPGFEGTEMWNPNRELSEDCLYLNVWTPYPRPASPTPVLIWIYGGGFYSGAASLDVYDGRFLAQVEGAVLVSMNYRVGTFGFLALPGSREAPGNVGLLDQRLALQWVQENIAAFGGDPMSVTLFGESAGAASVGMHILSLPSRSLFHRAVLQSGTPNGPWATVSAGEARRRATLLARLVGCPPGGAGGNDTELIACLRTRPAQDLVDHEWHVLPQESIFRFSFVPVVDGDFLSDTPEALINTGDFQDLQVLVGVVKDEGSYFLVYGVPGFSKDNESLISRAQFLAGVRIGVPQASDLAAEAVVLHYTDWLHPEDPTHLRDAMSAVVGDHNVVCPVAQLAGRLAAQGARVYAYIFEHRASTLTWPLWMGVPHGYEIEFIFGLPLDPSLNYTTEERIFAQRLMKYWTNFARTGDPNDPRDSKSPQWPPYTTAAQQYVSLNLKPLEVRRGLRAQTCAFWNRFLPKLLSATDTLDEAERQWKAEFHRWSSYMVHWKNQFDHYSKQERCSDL

motor activity [8] = experiment: Antagonistic effect on the stimulating effect of scopolamine (class F derivatives); type: in vivo; details: scopolamine 1 mg/kg; for oral dose countering the stimulating effect of scopolamine: oral administration
Experimental: At the dose of 1 mg/kg the scopolamine produce a clear stimulating effect (100 % of motor activity increase). This is countered by the oral administration of 2.5 mg of the three products MGR001, MGR002 and MGR003.

[9] = Pharmacokinetics after oral and intramuscular administration (class F derivatives); type: in vivo; details: rats; for maximum peak / time of the maximum peak after the oral administration: oral administration 7 mg/kg
Experimental: The kinetics of MGR001, MGR002, and MGR003 is determined in rats after oral administration and intramuscular of respectively 7 and 3.5 mg/kg. The maximum peak of 30 µg/ml is found 1 hour after the oral administration.

[10] = test system: mice (Swiss strain of both sexes); experiment: Acute toxicity, LD50 by oral administration in mice (class F derivatives); details: mice, oral administration
mice (Swiss strain) [11] = experiment: Acute toxicity, LD50 by oral route in mice (class A derivatives); type: in vivo; details: mouse, suspension in 2 % carboxymethylcellulose, observation 7 days
Description: The letal doses 50 (LD50) by oral route (suspension in 2 % carboxymethylcellulose) are reported herinbelow: TABLE 1

[12] = test system: acetylcholinesterase (AchE); type: in vivo, Wistar male rats; details: rat; for inhibitory cerebral and serumal acetylcholinesterase activity (in words): oral, 1.5 to 4.5 mg/kg
mouse [13] = experiment: Spontaneous motility, Dews method modified according to Carminati (class A derivatives); type: in vivo; details: mouse (Swiss), oral, starting from minimum doses of 4-6 mg/kg
Description: as §1

SWISS male mice [14] = experiment: Electroencephalographic activity (class A derivatives); type: in vivo; details: 6 mg/kg/os, in the course of the successive 30 minutes
rabbit [15] = experiment: Effect on the duration of the curarization by succinylcholine (class A derivatives); type: in vivo; details: anesthetized rabbit, 0.8 mg/kg intravenous
Description: . […] By using the same method (male rabbits of the tawny strain of Bourgogne; […]

[16] = Pharmacokinetics, plasma level by HPLC (MGS101); type: in vivo, Wistar male rats; details: rat, 6 mg/kg/os
Experimental: as §2, §3

motor activity [17] = experiment: Antagonistic effect on the stimulating effect of scopolamine (class B derivatives); type: in vivo; details: scopolamine 1 mg/kg
Experimental: At the dose of 1 mg/kg, scopolamine produces an evident stimulating effect (100% increase in motor activity).
This effect is countered by the oral administration of 2.5 mg of the above mentioned compounds.

motor activity [18] = experiment: Antagonist effect on the stimulating effect of scopolamine (class C derivatives); type: in vivo; details: scopolamine 1 mg/kg
Experimental: This is countered by the oral administration of 2.5 mg of ES001, ES002, ES003.

[19] = acetylcholinesterase inhibition 20 minutes after oral administration, limits in brackets

## CNCCCCCCCNC(=O)Oc1ccc2c(c1)[C@]1(C)CCN(C)[C@@H]1N2C [MGF001, (3a S-cis) - 1,2,3,3a,8,8a hexahydro - 1,3a,8 - trimethyl pyrrol [2,3-b]-indol-5-ol-N-methyl-aminoheptyl carbamate ester]
Mice (Swiss strain) [1]
  LD50 per os: 461.44 ± 51.33 mg/kg
[2]; 2 mg/kg/OS
  INHIBITION % OF ACETYLCHOLINESTERASE (AchE) after 60 minutes brain: 46.38 ± 4.12%
  INHIBITION % OF ACETYLCHOLINESTERASE (AchE) after 60 minutes serum: 42.6 ± 5.28%
  INHIBITION % OF ACETYLCHOLINESTERASE (AchE) after 120 minutes brain: 25.45 ± 2.18%
  INHIBITION % OF ACETYLCHOLINESTERASE (AchE) after 120 minutes serum: 19.83 ± 4.27%
[2]; [19]
  ED50 (mg/kg/os) brain: 1.83 (1.14 - 2.94) mg/kg/os
  ED50 (mg/kg/os) serum: 1.90 (1.13 - 3.20) mg/kg/os
[2]
  inhibitory acetylcholinesterase activity (in words): clear inhibitory dose-dependent and reversible
Mouse [3]
  oral dose causing a significant decrease of the spontaneous motility: 2.5 to 5 mg/kg
SWISS male mice [4]
  modifications of the electroencephalogram: increase of the amplitude and a decrease of the frequency of the electroencephalogram
Rabbit [5]
  curare effect of succinylcholine compared with physostigmine: prolonged in the same way as physostigmine the curare effect of succinylcholine
[6]
  concentration in plasma after 20 minutes: 11480 ± 2230 ng/mL
  concentration in plasma after 120 minutes: 28410 ± 8400 ng/mL
  concentration in plasma after 12 hours: 10640 ± 5460 ng/mL
  maximum peak in plasma: 47.60 ± 9.12 µg/mL
  time of the maximum peak in plasma: 90 '

## CNCCCCCNC(=O)Oc1ccc2c(c1)[C@]1(C)CCN(C)[C@@H]1N2C [MGF002, (3a S-cis) - 1,2,3,3a,8,8a hexahydro - 1,3a,8 - trimethyl pyrrol [2,3,b]-indol-5-ol-N-methyl-aminopentyl carbamate ester]
Mice (Swiss strain) [1]
  LD50 per os: 436.72 ± 23.45 mg/kg
[2]
  inhibitory acetylcholinesterase activity (in words): clear inhibitory dose-dependent and reversible
Mouse [3]
  oral dose causing a significant decrease of the spontaneous motility: 2.5 to 5 mg/kg
Rabbit [5]
  curare effect of succinylcholine compared with physostigmine: prolonged in the same way as physostigmine the curare effect of succinylcholine

## CN1CC[C@@]2(C)c3cc(OC(=O)NCCCCCCCN)ccc3N(C)[C@@H]12 [MGF005, (3a S-cis) - 1,2,3,3a,8,8a hexahydro - 1,3a,8 - trimethyl pyrrol [2,3,b]-indol-5-ol-amino heptyl carbamate ester]
Mice (Swiss strain) [1]
  LD50 per os: 428.42 ± 56.21 mg/kg
[2]
  inhibitory acetylcholinesterase activity (in words): clear inhibitory dose-dependent and reversible
Mouse [3]
  oral dose causing a significant decrease of the spontaneous motility: 2.5 to 5 mg/kg

## CC(=O)OCC(COP(=O)(O)OCCNC(=O)Oc1ccc2c(c1)[C@]1(C)CCN(C)[C@@H]1N2C)OC(C)=O (stereo partly drawn) [MGR001, (3aS-cis) 1,2,3,3a,8,8a-hexahydro-1,3a,8 trimethyl-pyrrol-[2,3-b]-indol-5-ol-diacetylglycerylphosphoryl-ethyl carbamate ester]
[7]
  inhibition of AChE (acetylcholinesterase) on the mouse brain (in words): dose-dependence and reversible inhibition
Motor activity [8]
  oral dose countering the stimulating effect of scopolamine: 2.5 mg
[9]
  liver kinetics / excretion: pass through into the urine unchanged
  maximum peak: 30 µg/mL
  time of the maximum peak after the oral administration: 1 h
[10]
  LD50: 500 mg/kg

## CN1CC[C@@]2(C)c3cc(OC(=O)NCCOP(=O)(O)OCC(O)CO)ccc3N(C)[C@@H]12 (stereo partly drawn) [MGR002, (3aS-cis) 1,2,3,3a,8,8a-hexahydro-1,3a,8 trimethyl-pyrrol-[2,3-b]-indol-5-ol-glycerylphosphoryl-ethyl carbamate ester]
[7]
  inhibition of AChE (acetylcholinesterase) on the mouse brain (in words): dose-dependence and reversible inhibition
Motor activity [8]
  oral dose countering the stimulating effect of scopolamine: 2.5 mg
[9]
  liver kinetics / excretion: pass through into the urine unchanged
  maximum peak: 30 µg/mL
  time of the maximum peak after the oral administration: 1 h
[10]
  LD50: 485 mg/kg

## CC(=O)OCC(COP(=O)(O)OC[C@H](NC(=O)Oc1ccc2c(c1)[C@]1(C)CCN(C)[C@@H]1N2C)C(=O)O)OC(C)=O (stereo partly drawn) [MGR003, (3aS-cis) 1,2,3,3a,8,8a-hexahydro - 1,3a,8 trimethyl-pyrrol-[2,3-b]-indol-5-ol-diacetyl-glycerylphosphoryl-2L -carboxylethyl carbamate ester]
[7]
  inhibition of AChE (acetylcholinesterase) on the mouse brain (in words): dose-dependence and reversible inhibition
Motor activity [8]
  oral dose countering the stimulating effect of scopolamine: 2.5 mg
[9]
  maximum peak: 30 µg/mL
  time of the maximum peak after the oral administration: 1 h
[10]
  LD50: 350 mg/kg

## CC[C@H](C)[C@H](NC(=O)Oc1ccc2c(c1)[C@]1(C)CCN(C)[C@@H]1N2C)C(=O)O [MGS101]
Mice (Swiss strain) [11]
  LD50 per os: 332.8 ± 6.20 mg/kg
[12]; 3.5 mg/kg/OS
  INHIBITION % OF ACETYLCHOLINESTERASE (AchE) after 60 minutes brain: 38.71 ± 6.12%
  INHIBITION % OF ACETYLCHOLINESTERASE (AchE) after 60 minutes serum: 31.6 ± 4.25%
  INHIBITION % OF ACETYLCHOLINESTERASE (AchE) after 120 minutes serum: 20.12 ± 2.40%
[12]; [19]
  ED50 (mg/kg/os) brain: 2.89 (1.83 - 4.59) mg/kg/os
  ED50 (mg/kg/os) serum: 2.89 (1.82 - 4.49) mg/kg/os
[12]
  inhibitory cerebral and serumal acetylcholinesterase activity (in words): clear inhibitory dose-dependent and reversible
Mouse [13]
  decrease of the spontaneous motility (on average): ~-30%
SWISS male mice [14]
  modifications of the electroencephalogram: increase of the amplitude and a decrease of the frequency of the electroencephalogram
Rabbit [15]
  effect on the curarization by succinylcholine compared with physostigmine: induced the same anticholinesterase effect of physostigmine
[16]
  concentration in plasma after 20 minutes: 15910 ± 4210 ng/mL
  concentration in plasma after 24 hours: 4310 ± 1980 ng/mL
  concentration in plasma at the twelfth hour: 14220 ± 3120 ng/mL
  maximum peak in plasma: 33.81 ± 6.15 µg/mL
  time of the maximum peak in plasma: 90 '

## CCCCCCCOC(=O)[C@@H](NC(=O)Oc1ccc2c(c1)[C@]1(C)CCN(C)[C@@H]1N2C)[C@@H](C)CC [MGS102, (3aS-cis) 1,2,3,3a,8,8a hexahydro-1,3a, 8-trimethyl-pyrrol (2,3-b) indol-5-ol-L-(3-methyl-2 carboxy-n-heptyl)-butyl-carbamate]
Mice (Swiss strain) [11]
  LD50 per os: 358.3 ± 18.83 mg/kg
[12]
  inhibitory cerebral and serumal acetylcholinesterase activity (in words): clear inhibitory dose-dependent and reversible
Mouse [13]
  decrease of the spontaneous motility (on average): ~-30%
Rabbit [15]
  effect on the curarization by succinylcholine compared with physostigmine: induced the same anticholinesterase effect of physostigmine

## CN1[C@@H]2C[C@@H](OC(=O)[C@H](CO)c3ccccc3)C[C@H]1[C@@H]1O[C@@H]12 [scopolamine, reference compound]
Motor activity [17]
  increase in motor activity: 100%
Motor activity [18]
  increase in motor activity: 100%
Motor activity [8]
  motor activity increase: 100%
